# What was measured:
# PBMCs [1] = experiment: LPS-induced IL-8 release in PBMC cells; type: cell-based; conditions: Homo sapiens, LPS-stimulated PBMCs, read-out: IC50 Values for Inhibition of Cytokine Release PBMCs IL-8
# Summary of the method: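 Healthy-donor PBMCs isolated by density gradient were pretreated with compound for 2 h, then stimulated with 1 ng/mL LPS (E. coli 0111:B4) for 24 h at 37° C., 5% CO2. IL-8 and TNFα in supernatants measured by sandwich ELISA.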
# p38 MAPKα [2] = target: T1, p38 MAPKα (Homo sapiens, UniProt Q16539); experiment: KINOMEscan dissociation constant, p38 MAPKα; type: binding
# T1 construct: purchased Invitrogen
# T1 sequence (Q16539 whole entry): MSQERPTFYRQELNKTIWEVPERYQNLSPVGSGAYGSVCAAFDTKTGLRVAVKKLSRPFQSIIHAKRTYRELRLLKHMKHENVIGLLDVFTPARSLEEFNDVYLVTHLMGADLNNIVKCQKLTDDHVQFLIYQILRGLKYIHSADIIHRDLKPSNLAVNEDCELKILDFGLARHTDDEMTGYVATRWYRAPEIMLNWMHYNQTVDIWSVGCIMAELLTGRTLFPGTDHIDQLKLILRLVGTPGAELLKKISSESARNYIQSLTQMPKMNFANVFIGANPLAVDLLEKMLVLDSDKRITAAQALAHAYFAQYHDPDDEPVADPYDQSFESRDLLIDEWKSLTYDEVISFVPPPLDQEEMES
# Description: (§1) Kinase enzyme binding activities of compounds disclosed herein may be determined using a proprietary assay which measures active site-directed competition binding to an immobilized ligand (Fabian, M. A. et al., Nature Biotechnol., 2005, 23:329-336). These assays may be conducted by DiscoverX (formerly Ambit; San Diego, Calif.). The percentage inhibition produced by incubation with a test compound may be calculated relative to the non-inhibited control.
# p38 MAPKα [3] = target: T1, p38 MAPKα; experiment: p38 MAPKα enzyme inhibition (Method 2), FRET Z-LYTE; type: biochemical
# Description: (§2) The enzyme inhibitory activities of compounds disclosed herein are determined by FRET using synthetic peptides labelled with both donor and acceptor fluorophores (Z-LYTE, Invitrogen Ltd., Paisley, UK).
# The inhibitory activities of test compounds against the p38 MAPKα isoform (MAPK14: Invitrogen), are evaluated indirectly by determining the level of activation/phosphorylation of the down-stream molecule, MAPKAP-K2. The p38 MAPKα protein (80 ng/mL, 2.5 μL) is mixed with the test compound (2.5 μL of either 4 μg/mL, 0.4 μg/mL, 0.04 μg/mL or 0.004 μg/mL) for 2 hr at RT. […] The mixture is incubated for 1 hr at RT. Development reagent (protease, 5 μL) is added for 1 hr prior to detection in a fluorescence microplate reader (Varioskan® Flash, ThermoFisher Scientific).
# This method follows the same steps as Method 1 above, but utilises a higher concentration of the p38 MAPKα protein (2.5 μL of 200 ng/mL protein instead of 2.5 μL of 80 ng/mL protein) for mixing with the test compound.
# (§3) In all cases, the site-specific protease cleaves non-phosphorylated peptide only and eliminates the FRET signal. Phosphorylation levels of each reaction are calculated using the ratio of coumarin emission (donor) over fluorescein emission (acceptor), for which high ratios indicate high phosphorylation and low ratios indicate low phosphorylation levels.
# Lck = target: T2, Lck (Homo sapiens, UniProt P06239); experiment: KINOMEscan dissociation constant, Lck; type: binding
# T2 construct: purchased DiscoveRx Corporation (LeadHunter Discover Services, KINOMEscan)
# T2 sequence (P06239 whole entry): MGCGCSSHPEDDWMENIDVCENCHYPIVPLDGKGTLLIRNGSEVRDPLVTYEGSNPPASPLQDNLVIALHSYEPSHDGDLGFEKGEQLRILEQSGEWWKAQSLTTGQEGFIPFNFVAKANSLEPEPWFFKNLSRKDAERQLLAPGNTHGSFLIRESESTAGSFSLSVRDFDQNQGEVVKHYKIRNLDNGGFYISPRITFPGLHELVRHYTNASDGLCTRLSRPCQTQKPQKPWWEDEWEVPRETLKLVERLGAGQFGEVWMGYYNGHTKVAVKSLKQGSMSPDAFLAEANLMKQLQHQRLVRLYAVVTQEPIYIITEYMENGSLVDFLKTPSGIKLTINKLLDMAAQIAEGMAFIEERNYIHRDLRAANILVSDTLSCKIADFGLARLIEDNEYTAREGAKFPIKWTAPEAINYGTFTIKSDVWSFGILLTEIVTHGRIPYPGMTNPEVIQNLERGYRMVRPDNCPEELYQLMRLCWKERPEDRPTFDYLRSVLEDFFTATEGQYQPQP
# Description: as §1
# PBMCs [4] = experiment: IFN gamma release in CD3/CD28 stimulated PBMC cells; type: cell-based; conditions: Homo sapiens, read-out: IC50 Values for Inhibition of Cytokine Release PBMCs IFNγ
# Description: (§4) PBMCs from healthy subjects are separated from whole blood using a density gradient (Lymphoprep, Axis-Shield Healthcare). Cells are added to a 96 well plate pre-coated with a mixture of CD3/CD28 monoclonal antibodies (0.3 μg/mL eBioscience and 3 μg/mL BD Pharmingen respectively). Compound at the desired concentration is then added to the wells and the plate left for 3 days under normal tissue culture conditions. Supernatants are harvested and IL-2 and IFN gamma release determined by Sandwich ELISA (Duo-set, R&D System). The IC50 is determined from the dose response curve.
# PBMCs [5] = experiment: Cell mitosis assay in PBMCs; type: cell-based, human
# Description: Peripheral blood mononucleocytes (PBMCs) from healthy subjects are separated from whole blood (Quintiles, London, UK) using a density gradient (Histopaque®-1077, Sigma-Aldrich, Poole, UK). The PBMCs (3 million cells per sample) are subsequently treated with 2% PHA (phytohaemagglutinin, Sigma-Aldrich, Poole, UK) for 48 hr, followed by a 20 hr exposure to varying concentrations of test compounds. At 2 hr before collection, PBMCs are treated with demecolcine (0.1 μg/mL; Invitrogen, Paisley, UK) to arrest cells in metaphase. To observe mitotic cells, PBMCs are permeabilised and fixed by adding Intraprep (50 μL; Beckman Coulter, France), and stained with anti-phospho-histone 3 (0.26 ng/L; #9701; Cell Signalling, Danvers, Mass.) and propidium iodide (1 mg/mL; Sigma-Aldrich, Poole, UK) as previously described (Muehlbauer P. A. and Schuler M. J., Mutation Research, 2003, 537:117-130). Fluorescence is observed using an ATTUNE flow cytometer (Invitrogen, Paisley, UK), gating for lymphocytes.
# GSK3α = target: T3, GSK3α (Homo sapiens, UniProt P49840); experiment: GSK3α enzyme inhibition (Method 2), FRET Z-LYTE; type: biochemical
# T3 construct: purchased Invitrogen
# T3 sequence (P49840 whole entry): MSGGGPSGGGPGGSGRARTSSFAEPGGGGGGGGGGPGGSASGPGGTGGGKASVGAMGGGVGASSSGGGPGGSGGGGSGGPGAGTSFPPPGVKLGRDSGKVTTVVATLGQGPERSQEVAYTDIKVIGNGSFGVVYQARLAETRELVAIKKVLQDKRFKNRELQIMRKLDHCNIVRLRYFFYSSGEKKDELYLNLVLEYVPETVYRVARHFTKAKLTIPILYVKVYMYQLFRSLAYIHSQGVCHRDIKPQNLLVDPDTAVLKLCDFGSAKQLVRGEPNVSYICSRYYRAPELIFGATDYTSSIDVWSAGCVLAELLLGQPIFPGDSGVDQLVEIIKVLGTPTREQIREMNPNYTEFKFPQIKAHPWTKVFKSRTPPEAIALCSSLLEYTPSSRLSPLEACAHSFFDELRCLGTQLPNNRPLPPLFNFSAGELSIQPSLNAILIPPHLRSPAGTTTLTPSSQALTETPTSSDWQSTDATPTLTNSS
# Description: as §2
# The inhibitory activities of compounds of the invention against the GSK 3α enzyme isoform (Invitrogen), are evaluated by determining the level of activation/phosphorylation of the target peptide. The GSK3-α protein (500 ng/mL, 2.5 μL) is mixed with the test compound (2.5 μL at either 4 μg/mL, 0.4 μg/mL, 0.04 μg/mL, or 0.004 μg/mL) for 2 hr at RT. The FRET peptide (8 μM, 2.5 μL), which is a phosphorylation target for GSK3α, and ATP (40 μM, 2.5 μL) are then added to the enzyme/compound mixture and the resulting mixture incubated for 1 hr. Development reagent (protease, 5 μL) is added for 1 hr prior to detection in a fluorescence microplate reader (Varioskan® Flash, ThermoFisher Scientific).
# as §3
# This method follows the same steps as Method 1 above, but utilises a shorter period of mixing of the test compound (105 minutes instead of 2 hours) with the GSK3-α protein.
# PBMCs [6] = experiment: IL-2 release in CD3/CD28 stimulated PBMC cells; type: cell-based; conditions: Homo sapiens, read-out: IC50 Values for Inhibition of Cytokine Release PBMCs IL-2
# Description: as §4
# c-Src = target: T4, c-Src (Homo sapiens, UniProt P12931); experiment: c-Src enzyme inhibition, FRET Z-LYTE; type: biochemical
# T4 construct: purchased Invitrogen
# T4 sequence (P12931 whole entry): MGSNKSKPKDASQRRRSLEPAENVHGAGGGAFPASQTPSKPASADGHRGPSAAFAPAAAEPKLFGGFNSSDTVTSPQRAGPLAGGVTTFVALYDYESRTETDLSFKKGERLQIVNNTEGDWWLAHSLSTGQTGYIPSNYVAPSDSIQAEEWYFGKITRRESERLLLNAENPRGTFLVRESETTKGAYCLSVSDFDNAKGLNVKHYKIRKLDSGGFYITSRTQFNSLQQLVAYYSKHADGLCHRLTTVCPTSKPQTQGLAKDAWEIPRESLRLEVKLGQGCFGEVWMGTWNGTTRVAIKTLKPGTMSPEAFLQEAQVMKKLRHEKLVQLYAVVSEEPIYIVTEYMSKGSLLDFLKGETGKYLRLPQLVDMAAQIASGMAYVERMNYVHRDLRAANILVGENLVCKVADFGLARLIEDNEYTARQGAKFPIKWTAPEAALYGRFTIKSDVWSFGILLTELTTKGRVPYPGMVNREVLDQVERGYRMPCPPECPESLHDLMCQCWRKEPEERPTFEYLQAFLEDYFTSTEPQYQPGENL
# Description: as §2
# (§5) The inhibitory activities of compounds of the invention against c-Src and Syk enzymes (Invitrogen), are evaluated in a similar fashion to that described hereinabove. The relevant enzyme (3000 ng/mL or 2000 ng/mL respectively, 2.5 μL) is incubated with the test compound (either 4 μg/mL, 0.4 μg/mL, 0.04 μg/mL, or 0.004 μg/mL, 2.5 μL each) for 2 hr at RT. The FRET peptides (8 μM, 2.5 μL), and appropriate ATP solutions (2.5 μL, 800 μM for c-Src, and 60 μM ATP for Syk) are then added to the enzymes/compound mixtures and incubated for 1 hr. Development reagent (protease, 5 μL) is added for 1 hr prior to detection in a fluorescence microplate reader (Varioskan® Flash, ThermoFisher Scientific).
# as §3
# Jurkat cells = experiment: Cell cytotoxicity assay (Jurkat cell viability); type: cell-based, human; conditions: 24 hours
# Description: 1×10^5 Jurkat cells (immortalised human T lymphocytes) are added to the appropriate number of wells of a 96 well plate in 100 μL of media (RPMI supplemented with 10% foetal bovine serum). 1 μL of DMSO control (final concentration 1.0% v/v) or test compound (final concentration 20, 5 or 1 μg/mL) is added to the wells and incubated at 37° C., 5% CO2. After 24 hours, the plate is centrifuged at 1200 rpm for 3 minutes and the supernatant discarded. Cells are then resuspended in 150 μL (final concentration 7.5 μg/mL) of propidium iodide (PI) in PBS and incubated at 37° C., 5% CO2 for 15 minutes. After 15 minutes, cells are analysed by flow cytometry (BD accuri) using the FL3 window. The % viability is calculated as the % of cells that are PI negative in the test wells normalised to the DMSO control.
# Syk [7] = target: T5, Syk (Homo sapiens, UniProt P43405); experiment: KINOMEscan dissociation constant, Syk; type: binding
# T5 construct: purchased Invitrogen
# Description: as §1
# Syk [8] = target: T5, Syk; experiment: Syk enzyme inhibition, FRET Z-LYTE; type: biochemical
# Description: as §2, §5, §3
# [9] = Hydrolytic stability study; type: physicochemical; conditions: DMSO/water (3:1), 1 mg/mL, experiment in which Example 2 was tested
# Description: Chemical stability of compounds of the invention was assessed in a mixture of DMSO and water (3:1) at a test compound concentration of 1 mg/mL
# General HPLC Procedure • Agilent, Waters X-Select C18, 2.5 μm, 4.6×30 mm column, 4 min method, 5-95% • MeCN/water (0.1% formic acid). • Flow rate 2.5 ml/min. • Column Oven Temperature 40° C. • Detection 254 nm.
# Sample Preparation • A 1.0 mg sample of test compound was dissolved in 1 mL of DMSO/water (3:1) and the resulting mixture was stirred at rt overnight.
# Recording Stability • A 50 μL aliquot of the test solution was removed and analysed in duplicate by 5 μL HPLC injections. The peak area for the test compound (taken to be 100% product, 0% degradation) was recorded following manual integration of the corresponding UV trace. The area retention time was also recorded. • The test solution was heated to 60° C. internal temperature (65° C. block temperature), with stirring, and timing commenced once the target temperature had been reached. After 5 and 24 h, samples were removed and analysed by HPLC (5 μL injections). In all cases, 5 μL injections were used and the samples analysed in duplicate. • The peak areas for the test compounds were recorded at both subsequent timepoints and the % decomposition calculated from the % change in peak area over time.
# HT29 cells = experiment: IL-1β-induced IL-8 release in HT29 cells; type: cell-based; conditions: Homo sapiens, HT-29; IL-1β-stimulated HT29 cells; read-out: IC50 Values for Inhibition of Cytokine Release HT29 cells IL-8
# Description: HT29 cells, a human colon adenocarcinoma cell line, are plated in a 96 well plate (24 hrs) and pre-treated with compounds at the desired concentration for 2 hours before addition of 5 ng/mL of IL-1β (Abcam) for 24 hours. Supernatants are harvested for IL-8 quantification by Sandwich ELISA (Duo-set, R&D System). The IC50 is determined from the dose response curve.
Structure (SMILES),IC50 (PBMCs [1]) [µM],Kd (p38 MAPKα [2]) [µM],IC50 (p38 MAPKα [3]) [µM],Kd (Lck) [µM],IC50 (PBMCs [4]) [µM],"inhibition at 5 µg/mL (PBMCs [5]; Homo sapiens, PBMC, PBMCs, 5 μg/mL) [%]","impact on cell division (mitosis) in PBMCs, in words (PBMCs [5]; assay (g), compared with Reference Compound A)",IC50 (GSK3α) [µM],IC50 (PBMCs [6]) [µM],IC50 (c-Src) [µM],% Viability at 1 μg/mL (Jurkat cells; 1 μg/mL) [%],% Viability at 5 μg/mL (Jurkat cells; 5 μg/mL) [%],% Viability at 20 μg/mL (Jurkat cells; 20 μg/mL) [%],Kd (Syk [7]) [µM],IC50 (Syk [8]) [µM],"% Parent Remaining ([9]; 60° C., 300 min) [%]","% Parent Remaining ([9]; 60° C., 1440 min) [%]",% Parent Remaining ([9]; time 0 min) [%],IC50 (HT29 cells) [µM]
"COc1cc(Nc2ncc3cc(-c4cc(C(=O)Nc5cc(C(C)(C)C)cc(C(N)=O)c5OC)ccc4C)ccc3n2)cc(C(=O)NCCN2CCOCC2)c1 [Example 3, N-(5-(tert-Butyl)-3-carbamoyl-2-methoxyphenyl)-3-(2-((3-methoxy-5-((2-morpholinoethyl)-carbamoyl)phenyl)amino)quinazolin-6-yl)-4-methylbenzamide]",0.008,0.0039,0.012,0.0067,0.0184,66.3,markedly less active than the Reference Compound A,> 13.1,0.0165,0.018,100.4,82.9,77.5,0.05,0.781,,,,
"COCCOCCOCCOc1cc(Nc2ncc3cc(-c4cc(C(=O)Nc5cc(C(C)(C)C)cc(NS(C)(=O)=O)c5OC)ccc4C)ccc3n2)cc(OC)c1 [Example 2, N-(5-(tert-Butyl)-2-methoxy-3-(methylsulfonamido)phenyl)-3-(2-((3-methoxy-5-(2-(2-(2-methoxyethoxy)ethoxy)ethoxy)phenyl)amino)quinazolin-6-yl)-4-methylbenzamide]",0.026,0.015,0.032,0.013,0.0533,,,> 12.5,0.126,0.027,,,,0.068,> 1.25,104.2,102.9,100,0.0787
